Test results published in ChEMBL document CHEMBL1201862, “PubChem BioAssay data set” (2004).
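Test compounds were applied to cells in 96-well plates for 48 hours at 5 doses. GI50 marks 50% less growth.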 The source made the active and inactive calls. Cut-off read from the data, not from the text of the source: active = GI50 up to about 1.1 µM and inactive = higher.

What was measured:
Test in all cases: DTP human tumour cell line panel, 48 h
SNB-19 = test system: SNB-19
LOX IMVI = test system: LOX IMVI
SN12C = test system: SN12C
DLD-1 = test system: DLD-1
HOP-92 = test system: HOP-92
SK-OV-3 = test system: SK-OV-3
Malme-3M = test system: Malme-3M
HOP-18 = test system: HOP-18
SW-620 = test system: SW-620
UACC-62 = test system: UACC-62
HCC 2998 = test system: HCC 2998
DMS-273 = test system: DMS-273
M19-MEL = test system: M19-MEL
EKVX = test system: EKVX
HL-60 = test system: HL-60
NCI-H226 = test system: NCI-H226
K562 = test system: K562
NCI-H522 = test system: NCI-H522
SF-295 = test system: SF-295
RXF 393 = test system: RXF 393
RPMI-8226 = test system: RPMI-8226
COLO 205 = test system: COLO 205
A549 = test system: A549
KM-20L2 = test system: KM-20L2
OVCAR-4 = test system: OVCAR-4
NCI-H460 = test system: NCI-H460
OVCAR-3 = test system: OVCAR-3
UACC-257 = test system: UACC-257
HT-29 = test system: HT-29
SNB-78 = test system: SNB-78
NCI-H23 = test system: NCI-H23
HCT-116 = test system: HCT-116
OVCAR-8 = test system: OVCAR-8
U-251 = test system: U-251
HOP-62 = test system: HOP-62
CCRF-CEM = test system: CCRF-CEM
NCI/ADR-RES = test system: NCI/ADR-RES
KM12 = test system: KM12
HCT-15 = test system: HCT-15
UO-31 = test system: UO-31
IGROV-1 = test system: IGROV-1
SK-MEL-2 = test system: SK-MEL-2
XF498 = test system: XF498
OVCAR-5 = test system: OVCAR-5
SF-539 = test system: SF-539
SK-MEL-5 = test system: SK-MEL-5
SF-268 = test system: SF-268
SNB-75 = test system: SNB-75
A498 = test system: A498
MOLT-4 = test system: MOLT-4
SK-MEL-28 = test system: SK-MEL-28
MCF7 = test system: MCF7
DMS-114 = test system: DMS-114

Measured: GI50

O=[N+]([O-])c1ccc(Nc2cccc3c4cc[nH]c(-c5ccccc5)c-4nc23)c([N+](=O)[O-])c1
> 100 µM: HCT-15
inactive: SNB-19 > 100 µM | LOX IMVI > 100 µM | SN12C > 100 µM | DLD-1 > 100 µM | HOP-92 > 100 µM | SK-OV-3 > 100 µM | Malme-3M > 100 µM | HOP-18 > 100 µM | SW-620 > 100 µM | UACC-62 93.5 µM | HCC 2998 > 100 µM | DMS-273 > 100 µM | M19-MEL > 100 µM | EKVX > 100 µM | HL-60 > 100 µM | NCI-H226 > 100 µM | K562 36.1 µM | NCI-H522 > 100 µM | SF-295 > 100 µM | RXF 393 > 100 µM | RPMI-8226 > 100 µM | COLO 205 > 100 µM | A549 > 100 µM | KM-20L2 > 100 µM | OVCAR-4 > 100 µM | NCI-H460 > 100 µM | OVCAR-3 > 100 µM | UACC-257 > 100 µM | HT-29 > 100 µM | SNB-78 > 100 µM | NCI-H23 > 100 µM | HCT-116 > 100 µM | OVCAR-8 > 100 µM | U-251 > 100 µM | HOP-62 > 100 µM | CCRF-CEM 41.4 µM | NCI/ADR-RES > 100 µM | KM12 > 100 µM | UO-31 > 100 µM | IGROV-1 > 100 µM | SK-MEL-2 > 100 µM | XF498 > 100 µM | OVCAR-5 > 100 µM | SF-539 > 100 µM | SK-MEL-5 > 100 µM | SF-268 > 100 µM | SNB-75 > 100 µM | A498 > 100 µM | MOLT-4 5.82 µM | SK-MEL-28 > 100 µM | MCF7 54.2 µM | DMS-114 > 100 µM
